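How tested: cells in 96-well plates exposed to compound for 48 hours at five concentrations. At the GI50, growth is halved. TGI: total growth inhibition.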 *1 amine or outer side, *2 acyl side, *3 side chain or, on linkers, in order; H or OH if unused. Where a SMILES comes first, the peptide text is derived from it. Bridges are numbered along the chain shown (N, C = ends). [ ]: non-standard residue; d: D form. The star is where a group is joined. Phe(3,5-F2) = N[C@@H](Cc1cc(F)cc(F)c1)C(=O)O; Pro(4R-Me) = C[C@H]1CN[C@H](C(=O)O)C1; aThr = C[C@H](O)[C@H](N)C(=O)O; Pip = O=C(O)[C@@H]1CCCCN1; X10 = Fc1cc(C2CC2)ccc1N*; CO = O=C([*:1])[*:2]
Key:
Assay in all cases: NCI anticancer screen, dose series, 48 h
HCC-2998 colon = tested on: HCC-2998 colon
HT29 colon = tested on: HT29 colon
SF-268 CNS = tested on: SF-268 CNS
NCI-H460 lung = tested on: NCI-H460 lung
HCT-116 colon = tested on: HCT-116 colon
786-0 renal = tested on: 786-0 renal
MALME-3M melanoma = tested on: MALME-3M melanoma
LOX IMVI melanoma = tested on: LOX IMVI melanoma
UACC-62 melanoma = tested on: UACC-62 melanoma
UO-31 renal = tested on: UO-31 renal

Row | Compound | TGI (HCC-2998 colon) [µM] | TGI (HT29 colon) [µM] | TGI (SF-268 CNS) [µM] | TGI (NCI-H460 lung) [µM] | TGI (HCT-116 colon) [µM] | TGI (786-0 renal) [µM] | TGI (MALME-3M melanoma) [µM] | TGI (LOX IMVI melanoma) [µM] | TGI (UACC-62 melanoma) [µM] | TGI (UO-31 renal) [µM] | GI50 (HCC-2998 colon) [µM] | GI50 (HT29 colon) [µM] | GI50 (SF-268 CNS) [µM] | GI50 (NCI-H460 lung) [µM] | GI50 (HCT-116 colon) [µM] | GI50 (786-0 renal) [µM] | GI50 (MALME-3M melanoma) [µM] | GI50 (LOX IMVI melanoma) [µM] | GI50 (UACC-62 melanoma) [µM] | GI50 (UO-31 renal) [µM]
1 | COc1cc2c(c3oc4c(O)cccc4c(=O)c13)CC(C(C)(O)CO)O2 (stereo unspecified) | > 100 | > 100 | > 100 | > 100 | > 100 | > 100 | > 100 | > 100 | > 100 | > 100 | – | – | – | – | – | – | – | – | – | –
2 | Cc1nc2sccn2c1-c1csc(Nc2ccccc2Cl)n1 | 45.3 | 13.6 | 86.5 | 15.8 | 16.2 | 15.7 | 22.1 | 21.6 | 23.3 | 33.6 | 6.25 | 3.08 | 8.33 | 3.19 | 3.3 | 3.47 | 3.55 | 4.4 | 3.05 | 3.21
3 | Cc1c(C(=O)CC(=O)C(=O)Nc2ccccc2C(F)(F)F)[n+](=O)c2ccccc2n1[O-] | 57.7 | 57.2 | 69 | 69.4 | 28.3 | > 100 | 37.1 | 63.8 | 34.4 | > 100 | – | – | – | – | – | – | – | – | – | –
4 | Cc1cc(-c2nc(C(=O)Nc3cc4oc(N5CCOCC5)nc4nc3N3CC[C@@H](O)C3)co2)ccn1 | > 100 | > 100 | > 100 | > 100 | > 100 | > 100 | > 100 | > 100 | > 100 | 68.7 | 55 | > 100 | 61.7 | 44 | 30.1 | 68.7 | 29.1 | 39.9 | 57 | 14.9
5 | O=C(Nc1ccc(-n2ccc3c(NC(=O)c4ccccc4)nccc32)cc1)c1ccc(Cl)c(C(F)(F)F)c1 | 10.4 | 6.31 | 11.9 | 1.2 | 0.989 | 9.93 | 14.7 | 3.29 | 9.79 | > 50 | 1.6 | 0.183 | 1.08 | 0.0442 | 0.0824 | 0.606 | 4.13 | 0.112 | 0.576 | 2.86
6 | OCc1cc2ccccc2c2c3c(ccc12)OCO3 | 232 | 78.6 | 117 | 752 | 149 | 203 | 209 | 118 | 74.2 | 108 | 37.8 | 27.5 | 33.8 | 28.5 | 30.6 | 42.3 | 48.1 | 35.7 | 21.5 | 26.3
7 | Cc1cnc(NCCCN(C)C)c2c1[nH]c1ccc3cc(O)ccc3c12 | 1.98 | 2.53 | 2.07 | 1.25 | 1.44 | 1.84 | 2.2 | 1.37 | 1.9 | 5.8 | – | – | – | – | – | – | – | – | – | –
8 | Cc1ccnc2c1ccc1c(C)ccnc12 | 15.1 | 12.6 | 14.6 | 11.3 | 13 | 10.9 | 5.27 | 4.66 | 1.03 | 2.91 | 0.381 | 0.491 | 0.454 | 0.339 | 0.418 | 0.327 | 0.364 | 0.367 | 0.288 | 0.246
9 | FC(F)(F)c1cccc(Nc2nc(-c3ccccc3)nc3ncccc23)c1 | 30.2 | 12 | 44.3 | 12.6 | 13.7 | 6.51 | 28.7 | 24.6 | 26.2 | 21.8 | 4.91 | 3.15 | 6.76 | 3.45 | 3.62 | 2.51 | 5.63 | 4.48 | 5.84 | 4.86
10 | COc1ccc2c(c1)sc1nc(-c3ccccc3)c(-c3cccc4ccccc34)n12 | 36.6 | 4.38 | > 100 | > 35.2 | > 100 | > 100 | > 100 | > 100 | > 100 | > 100 | 1.53 | 0.353 | 0.878 | 0.416 | 0.615 | 0.848 | > 100 | 0.713 | 0.414 | 1.34
11 | C[C@@H]1C[C@H]2C(=O)O[C@@H](C)[C@H](NC(=O)[C@H](Cc3cc(F)cc(F)c3)NC(=O)Nc3ccc(C4CC4)cc3F)C(=O)N3CCC[C@H]3C(=O)N3CCCC[C@H]3C(=O)N[C@@H](C)C(=O)N2C1 ({X10-CO}-[Phe(3,5-F2)][aThr]P[Pip]A[Pro(4R-Me)]; ester 2-C) | 1.78 | 7.95 | > 46.9 | 4.55 | 2.16 | > 38.4 | 5.9 | 11.5 | 4.37 | 7.61 | 0.0402 | 0.0496 | 0.049 | 0.0391 | 0.0414 | 0.0817 | 0.0635 | 0.0668 | 0.0512 | 0.161
12 | NS(=O)(=O)OC[C@@H]1C[C@@H](n2ccc3c(NC4CCc5ccccc54)ncnc32)C[C@@H]1O (stereo partly specified) | 18.2 | 29.2 | > 100 | 23.9 | 5.46 | 29.7 | > 92.8 | 0.436 | 20.6 | > 100 | 2.97 | 0.566 | 0.548 | 0.341 | 0.103 | 0.671 | 21.9 | 0.0673 | 0.0856 | 11
13 | COC([CH2][Hg][n]1cnc2c1c(=O)n(C)c(=O)n2C)CN1C(=O)c2ccccc2S1(=O)=O (stereo unspecified) | > 100 | > 100 | > 100 | > 100 | > 100 | > 100 | > 100 | > 100 | > 100 | > 100 | > 100 | > 100 | > 100 | > 100 | > 100 | > 100 | > 100 | > 100 | > 100 | > 100
14 | Fc1[nH]nc2ccc([C@@H]3Nc4ccc5[nH]ncc5c4[C@H]4C5CCC(C5)[C@@H]34)cc12 (stereo partly specified) | 12.8 | 12.8 | 19.8 | 7.26 | 12.1 | 15.6 | 26 | 14 | 13.2 | 14.1 | 3.14 | 0.439 | 2.59 | 0.804 | 0.441 | 2.82 | 11.6 | 0.768 | 0.849 | 2.83
15 | CCN(CC)N=Nc1c(C(N)=O)n[nH]c1C | > 100 | > 100 | > 100 | > 100 | > 100 | > 100 | > 100 | > 100 | > 100 | > 100 | – | – | – | – | – | – | – | – | – | –
16 | COc1cc(/C=N\NC(=O)CN2CCN(c3cc4c(cc3F)c(=O)c(C(=O)N/N=C/c3cc(OC)c(OC)c(OC)c3)cn4C3CC3)CC2)cc(OC)c1OC | 0.33 | – | – | 0.636 | 0.5 | > 100 | 0.712 | 0.343 | 0.583 | > 100 | 0.178 | 0.278 | 0.292 | 0.251 | 0.219 | 18.7 | 0.235 | 0.176 | 0.231 | > 100
17 | CC(=O)OC1OC([C@@H]2c3cccc(O)c3C(=O)c3c(O)cc(C)cc32)C(O)C(O)C1O (stereo partly specified) | – | > 100 | 4.52 | – | 1.2 | 1.27 | 0.0902 | 0.0481 | 1.52 | 1.11 | < 0.01 | 0.059 | 0.106 | 0.108 | 0.108 | 0.13 | 0.0288 | < 0.0141 | 0.0211 | 0.0419
18 | CNC(=S)OCCC(C)CCCC(C)C (stereo unspecified) | 32.2 | 31.3 | 30.7 | 35.2 | 30.7 | 30.9 | 36.8 | 26.2 | 29.1 | 20.7 | – | – | – | – | – | – | – | – | – | –
19 | CC1(C(=O)O)CCC[C@@]2(C)C1CC[C@@]1(C)c3cocc3CCC21 (stereo partly specified) | > 100 | > 100 | > 100 | > 100 | > 100 | > 100 | > 100 | > 100 | > 100 | > 100 | – | – | – | – | – | – | – | – | – | –
20 | Cc1ccc(Cl)c2c(N=Nc3ccccc3[N+](=O)[O-])c(O)[nH]c12 | > 100 | > 100 | > 100 | > 100 | > 100 | > 100 | > 100 | > 100 | > 100 | > 100 | – | – | – | – | – | – | – | – | – | –
21 | NS(=O)(=O)c1ccc2c(c1)OCCOCCOCCOCCO2 | > 100 | > 100 | > 100 | > 100 | > 100 | > 100 | > 100 | > 100 | > 100 | > 100 | – | – | – | – | – | – | – | – | – | –
22 | Nc1c(C(=O)c2cccc(CCS(N)(=O)=O)c2)cnn1-c1ccc(F)cc1 | > 25 | > 25 | > 25 | > 25 | > 25 | > 25 | > 25 | > 25 | > 25 | > 25 | > 25 | > 25 | > 25 | > 25 | > 25 | > 25 | > 25 | > 25 | > 25 | > 25
